For data set [1], the target named is T1, STAT5 (Homo sapiens, UniProt P42229+P51692).
T1 sequence (P42229 1-794): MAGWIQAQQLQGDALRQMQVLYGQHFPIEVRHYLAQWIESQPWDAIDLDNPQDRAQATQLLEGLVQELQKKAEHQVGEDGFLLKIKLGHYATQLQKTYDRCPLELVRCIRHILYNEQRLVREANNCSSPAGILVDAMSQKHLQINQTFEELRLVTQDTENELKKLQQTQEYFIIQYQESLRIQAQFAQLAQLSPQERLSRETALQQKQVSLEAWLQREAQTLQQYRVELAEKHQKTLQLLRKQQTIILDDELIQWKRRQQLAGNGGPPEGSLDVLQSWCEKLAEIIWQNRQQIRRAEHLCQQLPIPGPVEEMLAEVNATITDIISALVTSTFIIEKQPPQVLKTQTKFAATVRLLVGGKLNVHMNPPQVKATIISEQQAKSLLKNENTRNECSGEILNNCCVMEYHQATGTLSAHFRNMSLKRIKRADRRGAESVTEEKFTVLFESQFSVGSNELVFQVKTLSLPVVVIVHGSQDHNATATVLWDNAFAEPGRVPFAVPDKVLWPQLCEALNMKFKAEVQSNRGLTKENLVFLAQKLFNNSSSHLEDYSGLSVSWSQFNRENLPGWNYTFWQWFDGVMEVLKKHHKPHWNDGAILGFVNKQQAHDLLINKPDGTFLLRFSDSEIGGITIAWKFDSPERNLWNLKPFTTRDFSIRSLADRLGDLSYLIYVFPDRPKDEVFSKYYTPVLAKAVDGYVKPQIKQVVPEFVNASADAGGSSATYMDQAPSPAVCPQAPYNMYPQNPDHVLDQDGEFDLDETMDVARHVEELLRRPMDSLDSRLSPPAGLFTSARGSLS
T1 sequence (P51692 1-787): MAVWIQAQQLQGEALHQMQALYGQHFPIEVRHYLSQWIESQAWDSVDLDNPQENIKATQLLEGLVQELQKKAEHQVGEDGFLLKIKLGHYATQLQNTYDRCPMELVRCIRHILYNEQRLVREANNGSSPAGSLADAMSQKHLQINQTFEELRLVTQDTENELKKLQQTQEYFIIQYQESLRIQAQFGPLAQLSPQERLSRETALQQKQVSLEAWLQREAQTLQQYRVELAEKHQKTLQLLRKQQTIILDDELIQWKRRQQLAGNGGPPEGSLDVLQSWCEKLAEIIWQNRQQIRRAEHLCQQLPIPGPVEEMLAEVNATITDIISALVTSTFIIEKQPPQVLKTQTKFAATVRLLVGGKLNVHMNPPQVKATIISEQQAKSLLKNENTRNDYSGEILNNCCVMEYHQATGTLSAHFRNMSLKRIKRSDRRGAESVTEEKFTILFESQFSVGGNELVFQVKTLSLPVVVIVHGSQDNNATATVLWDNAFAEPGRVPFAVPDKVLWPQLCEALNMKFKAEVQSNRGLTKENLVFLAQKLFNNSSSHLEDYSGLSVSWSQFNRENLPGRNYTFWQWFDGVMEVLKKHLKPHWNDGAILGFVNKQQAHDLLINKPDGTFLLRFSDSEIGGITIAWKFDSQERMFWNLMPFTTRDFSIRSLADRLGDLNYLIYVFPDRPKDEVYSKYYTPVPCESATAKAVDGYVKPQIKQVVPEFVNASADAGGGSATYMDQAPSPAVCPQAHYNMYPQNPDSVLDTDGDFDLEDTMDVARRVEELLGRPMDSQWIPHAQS
On the set-up: endogenous in cells; host or cells: K562 nuclear extract. Conditions: K562 nuclear extract; cited from earlier work.

The next data set concerns the target SH2 domain of Lck (Homo sapiens, UniProt P06239). Conditions: read-out: IC50 towards the SH2 domain of Lck; cited from earlier work.
The target in data set [2] is T1, STAT5. On the set-up: in Bcr-Abl+ K562 and KU812 cultures; endogenous in cells; host or cells: K562 and KU812 cells. Conditions: cited from earlier work.
Data set [3] can be described thus: weight changes in rat AIA model. The format is in vivo, rats. As for the experimental part: FIG. 4 is a graph depicting weight changes in four groups of rat AIA models under different treatment schemes. Vehicle refers to the group of AIA model rats treated with DMSO. Therapeutic refers to the group of AIA model rats treated with pimozide (Sigma-Aldrich) 10 mg/kg in 30% PEG300 solution starting from day 13. Prophylactic refers to the group of AIA model rats treated with pimozide (Sigma-Aldrich) 10 mg/kg in 30% PEG300 solution starting from day 0. Normal refers to the group of rats without AIA model inducement.
Three groups (10 rats in each group) of female rats (age 8 weeks) were subject to AIA model induction and then to different treatment schemes. Specifically, 100 ug mBSA mixed with CFA was injected s.c. to flank near tail, and one dose of B. pertusiss was injected i.p. the next day to boost the immune reaction. The first of the three groups of rats were treated with DMSO (Vehicle). The second of the three groups of rats were treated with pimozide (Sigma-Aldrich) 10 mg/kg of body weight (same unit are used throughout this application) in 30% PEG300 solution via intraperitoneal injection with collagen injection starting from day 7 (Therapeutic). The last of the three groups of rats were treated with pimozide (Sigma-Aldrich) 10 mg/kg in 30% PEG300 solution via intraperitoneal injection either with collagen injection starting from day 0. […]

In the next data set the test system is AIA mouse model. Description: AIA mouse model (mBSA-induced knee arthritis). It counts as in vivo, mice (C57BL/6). To be noted: 10 mg/kg intraperitoneal. As for the experimental part:
This example describes a method of RA treatment with pimozide in a AIA mouse model. The right knees of fourteen mice (C57BL/6) were immunized with mBSA injection on the right knee to induce arthritis, while the left knees were used as control. Nine of the mice was then treated with pimozide. Specifically, pimozide was dissolved in DMSO at a concentration of 50 mg/ml, and then diluted in 30% PEG300 (Sigma) for intraperitoneal injection at 10 mg/kg dose. The remaining five mice were treated with vehicle DMSO that is diluted in 30% PEG300 for intraperitoneal injection. After 7 days, the mice were sacrificed and knees were dissected and fixed in 10% formalin and decalcified in 5% formic acid before dehydration and embedding in paraffin followed by standard hematoxylin and eosin (H&E) stain procedure.

This is an account of results in patent publication US11612595B2, “Compositions and methods for treating rheumatoid arthritis” (Generos Biopharma Ltd., priority 2017, dated 2023).

SH2 domain of Lck, sequence (P06239 120-226 limits assumed): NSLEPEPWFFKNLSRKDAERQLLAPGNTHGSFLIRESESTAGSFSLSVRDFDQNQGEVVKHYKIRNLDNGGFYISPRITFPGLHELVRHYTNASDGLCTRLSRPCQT

As for `O=C(N/N=C/c1coc2ccccc2c1=O)c1cccnc1` [nicotinohydrazide, N′-((4-Oxo-4H-chromen-3-yl)methylene)nicotinohydrazide], the “STAT5/STAT5 DNA binding activity” value on STAT5 [1] is given as “blocks”. Also, on SH2 domain of Lck, the concentration for half-maximal inhibition (IC50) (usually the concentration that inhibits the measured activity by half) was above 500 µM.

For `O=c1[nH]c2ccccc2n1C1CCN(CCCC(c2ccc(F)cc2)c2ccc(F)cc2)CC1` [pimozide, 1-[1-[4,4-bis(4-fluorophenyl)butyl]-4-piperidinyl]-1,3-dihydro-2H-benzimidazole-2-one], the STAT5 transcription activity entry on STAT5 [2] (5 μM for 18 h, Bcr-Abl+ K562 and KU812 cultures) is “inhibits”. Besides, the “expression of STAT5 target genes” value at STAT5 [2] (CML cell lines) was “decreased”. Besides, the “weight changes vs Vehicle” value in data set [3] (Prophylactic group, 10 mg/kg i.p. from day 0, at each time point) is given as “No significant difference”; in data set [3] (Therapeutic group, 10 mg/kg i.p., at each time point), “No significant difference”. In addition, in the data set on AIA mouse model (after 7 days, vs vehicle), the “infiltration of immune cells in knee cavity (H&E staining)” value is reported as “reduced infiltration of immune cells”. In addition, the “knee diameter differences (right knee vs left knee)” value with AIA mouse model (vs vehicle group) is reported as “significantly smaller”.
